For 11 compounds, IC50, K and Activity results are on record in ChEMBL document CHEMBL1152655, “Novel acenaphtho[1,2-b]pyrrole-carboxylic acid family: synthesis, cytotoxicity, DNA-binding and cell cycle evaluation” (Bioorg Med Chem, 2009).

A word on the IC50: it is the midpoint of a concentration-inhibition curve. The low end stands for greater potency, the high end for weaker potency.

Calls of active or inactive are those of the source. The calls are words filed in the database; no cut-off is given here.

Assay [1] relates to HeLa. Nature of the assay: Cytotoxicity against human HeLa cells after 48 hrs by MTT assay. The format is functional, cell-based. For orientation: Tetrazolium assays rely on reduction of a dye to a coloured formazan, in cell work by metabolically active cells.
Assay [2] concerns Calf thymus DNA. Nature of the assay: Binding affinity to calf thymus DNA. It is filed as nucleic-acid assay. The following applies: Bos taurus.
Assay [3] relates to MCF7. Nature of the assay: Cytotoxicity against human MCF7 cells after 48 hrs by MTT assay. The format is functional, cell-based. The following applies: MCF7, 48 h.
Assay [4] concerns A-375. Nature of the assay: Cytotoxicity against human A375 cells after 48 hrs by MTT assay. It is filed as functional, cell-based. The following applies: A-375, 48 h.
Assay [5] concerns HL-60. Nature of the assay: Cytotoxicity against human HL60 cells after 48 hrs by MTT assay. It is filed as functional, cell-based. The following applies: HL-60, 48 h.
Assay [6] relates to HCT-8. In words: Cytotoxicity against human HCT8 cells after 48 hrs by MTT assay. The format is functional, cell-based. The following applies: HCT-8, 48 h.
In assay [7] the test system is HeLa. In words: Cell cycle arrest in human HeLa cells by accumulation at G1 phase at 3.01 uM by flow cytometry (Rvb=58.94%). It is filed as functional. A general note: Flow cytometry measures light scatter and fluorescence of single cells or particles in a stream.
Assay [8] concerns HeLa. Nature of the assay: Cell cycle arrest in human HeLa cells assessed as apoptotic cells at 12.05 uM by flow cytometry relative to control. The format is functional.
In assay [9] the test system is Calf thymus DNA. In words: Binding affinity to calf thymus DNA assessed as increase in solution viscosity by viscometric titration. It is filed as nucleic-acid assay. The following applies: Bos taurus.
For assay [10], the system named is HeLa. Nature of the assay: Cell cycle arrest in human HeLa cells by accumulation at G1 phase at 21.08 uM by flow cytometry (Rvb=58.94%). The format is functional.
Assay [11] relates to Calf thymus DNA. Nature of the assay: Binding affinity to calf thymus DNA assessed as conformational change at 10 uM by CD spectra. It is filed as nucleic-acid assay. The following applies: Bos taurus.
Assay [12] concerns HeLa. Nature of the assay: Cell cycle arrest in human HeLa cells by accumulation at G2 phase at 21.08 uM by flow cytometry (Rvb=12.86%). The format is functional.
The subject of assay [13] is HeLa. Nature of the assay: Cell cycle arrest in human HeLa cells by accumulation at S phase at 21.08 uM by flow cytometry (Rvb=28.20%). The format is functional.
The test system of assay [14] is HeLa. In words: Cell cycle arrest in human HeLa cells by accumulation at S phase at 3.01 uM by flow cytometry (Rvb=28.20%). It is filed as functional.
In assay [15] the test system is HeLa. In words: Cell cycle arrest in human HeLa cells by accumulation at G2 phase at 3.01 uM by flow cytometry (Rvb=12.86%). The format is functional.
Assay [16] concerns HeLa. Nature of the assay: Cell cycle arrest in human HeLa cells by accumulation at G2 phase at 12.05 uM by flow cytometry (Rvb=12.86%). It is filed as functional.
Assay [17] deals with HeLa. Nature of the assay: Cell cycle arrest in human HeLa cells assessed as apoptotic cells at 3.01 uM by flow cytometry relative to control. It is filed as functional.
For assay [18], the system named is HeLa. In words: Cell cycle arrest in human HeLa cells by accumulation at G1 phase at 12.05 uM by flow cytometry (Rvb=58.94%). The format is functional.
In assay [19] the test system is HeLa. In words: Cell cycle arrest in human HeLa cells assessed as apoptotic cells at 21.08 uM by flow cytometry relative to control. It is filed as functional.
For assay [20], the system named is Calf thymus DNA. Nature of the assay: Binding affinity to calf thymus DNA assessed as DNA intercalation at 30 uM by UV-Vis absorption studies. The following applies: Bos taurus. The format is nucleic-acid assay.
Assay [21] has as its system HeLa. Nature of the assay: Cell cycle arrest in human HeLa cells by accumulation at S phase at 12.05 uM by flow cytometry (Rvb=28.20%). It is filed as functional.
Assay [22] concerns HeLa. In words: Cell cycle arrest in human HeLa cells by accumulation at G2 phase at 20.06 uM by flow cytometry (Rvb=12.86%). The format is functional.
In assay [23] the test system is HeLa. In words: Cell cycle arrest in human HeLa cells assessed as apoptotic cells at 20.06 uM by flow cytometry relative to control. It is filed as functional.
The subject of assay [24] is HeLa. In words: Cell cycle arrest in human HeLa cells by accumulation at S phase at 11.46 uM by flow cytometry (Rvb=28.20%). It is filed as functional.
Assay [25] has as its system HeLa. Nature of the assay: Cell cycle arrest in human HeLa cells by accumulation at S phase at 28.65 uM by flow cytometry (Rvb=28.20%). The format is functional.
Assay [26] has as its system HeLa. Nature of the assay: Cell cycle arrest in human HeLa cells assessed as apoptotic cells at 28.65 uM by flow cytometry relative to control. The format is functional.
In assay [27] the test system is HeLa. In words: Cell cycle arrest in human HeLa cells assessed as apoptotic cells at 11.46 uM by flow cytometry relative to control. It is filed as functional.
For assay [28], the system named is HeLa. In words: Cell cycle arrest in human HeLa cells by accumulation at S phase at 20.06 uM by flow cytometry (Rvb=28.20%). The format is functional.
The test system of assay [29] is HeLa. In words: Cell cycle arrest in human HeLa cells by accumulation at G1 phase at 28.65 uM by flow cytometry (Rvb=58.94%). It is filed as functional.
Assay [30] has as its system HeLa. Nature of the assay: Cell cycle arrest in human HeLa cells by accumulation at G1 phase at 11.46 uM by flow cytometry (Rvb=58.94%). It is filed as functional.
The test system of assay [31] is HeLa. Nature of the assay: Cell cycle arrest in human HeLa cells by accumulation at G1 phase at 20.06 uM by flow cytometry (Rvb=58.94%). It is filed as functional.
The test system of assay [32] is HeLa. In words: Cell cycle arrest in human HeLa cells by accumulation at G2 phase at 28.65 uM by flow cytometry (Rvb=12.86%). It is filed as functional.
The subject of assay [33] is HeLa. Nature of the assay: Cell cycle arrest in human HeLa cells by accumulation at G2 phase at 11.46 uM by flow cytometry (Rvb=12.86%). It is filed as functional.

Turning to `O=C(O)C1=C2C(=NC1=O)c1cccc3c(NCc4cccs4)ccc2c13`, the IC50 was 84.3 µM in assay [1]; over 100 µM in [3]; over 100 µM in assay [4]; 90 µM in [5]; over 100 µM in [6]. The compound also had a K in assay [2] of 6.75 ×10⁵ /M.
For the compound `N#CC1=C2C(=NC1=O)c1cccc3c(N4CCSCC4)ccc2c13`, the IC50 in [1] was found to be 15.7 µM; in assay [3], 41.2 µM; in [4] it was 48.7 µM; in assay [5], 28.6 µM; in [6] it was 25.8 µM.
On to `O=C(O)C1=C2C(=NC1=O)c1cccc3c(N4CCSCC4)ccc2c13`, for which the concentration for half-maximal inhibition (IC50) in assay [1] was 48.9 µM; in assay [3], over 100 µM; in assay [4] it was over 100 µM; in assay [5] it was 76.9 µM; in assay [6], over 100 µM. The same compound showed a K in assay [2] of 2.69 ×10⁵ /M.
`CCCCNc1ccc2c3c(cccc13)C1=NC(=O)C(C(=O)O)=C12`: the IC50 in [1] was 30.3 µM; in [3] it was over 100 µM; in [4], 50.1 µM; in assay [5], 24.1 µM; in assay [6] it was 48.1 µM. Also, the K in assay [2] amounted to 4.73 ×10⁵ /M.
As to `COC(=O)C1=C2C(=NC1=O)c1cccc3c(N4CCSCC4)ccc2c13`, the 50% inhibitory concentration (IC50) in [1] is 26.9 µM; in [3] it was 68 µM; in assay [4], over 100 µM; in assay [5] it was over 100 µM; in [6], over 100 µM.
For the compound `O=C(O)C1=C2C(=NC1=O)c1cccc3c(N4CCOCC4)ccc2c13`, the IC50 is 36.2 µM in assay [1]; 18 µM in assay [3]; 79.4 µM in assay [4]; 42.2 µM in [5]; over 100 µM in [6]. The compound also displayed a K in [2] of 2.34 ×10⁵ /M.
On to `O=C(O)C1=C2C(=NC1=O)c1cccc3c(N4CCCCC4)ccc2c13`, for which the Activity in assay [7] was 64.63%; in assay [8] it was 4.81%; in assay [9], “Dose-dependent effect”; in [10], 53.67%; in [12] it was 12.75%; in assay [13], 33.58%. Besides, the Activity was 31.63% in [14]; 3.75% in [15]; 9.46% in assay [16]; 4.34% in [17]; 60.02% in assay [18]; 11.95% in [19]. The same compound displayed an Activity in [21] of 30.52%. Besides, the half-maximal inhibitory concentration (IC50) in assay [1] was 20.6 µM; in assay [3], 14.5 µM; in assay [4] it was 18.4 µM; in assay [5], 20.5 µM; in [6], 24.4 µM. In addition, the result in [11] and in assay [20] was Active. Also, the K in assay [2] amounted to 2.91 ×10⁵ /M.
Turning to `CN1CCN(c2ccc3c4c(cccc24)C2=NC(=O)C(C(=O)O)=C23)CC1`, the IC50 in assay [1] came to 17.2 µM; in assay [3] it was 14.9 µM; in assay [4], 28.5 µM; in assay [5], 51 µM; in assay [6], 72.1 µM. In [2], this compound registered a K of 6.13 ×10⁵ /M.
Consider `CCN(CC)CCNc1ccc2c3c(cccc13)C1=NC(=O)C(C(=O)O)=C12`, for which the IC50 in [1] was found to be 10.4 µM; in assay [3] it was 16.5 µM; in assay [4] it was 71.8 µM; in assay [5], 19.8 µM; in [6], 38.1 µM. The compound further registered a K in assay [2] of 5.48 ×10⁵ /M.
As for `CN(C)CCNc1ccc2c3c(cccc13)C1=NC(=O)C(C(=O)O)=C12`, the IC50 is 89.7 µM in assay [1]; 97 µM in assay [3]; over 100 µM in assay [4]; 47.9 µM in assay [5]; over 100 µM in assay [6]. Moreover, the K in assay [2] came to 5.96 ×10⁵ /M.
As for `CN(C)CCCNc1ccc2c3c(cccc13)C1=NC(=O)C(C(=O)O)=C12`, the Activity in assay [22] was 18.6%; in assay [23], 11.13%; in assay [24] it was 35.96%; in assay [25] it was 48.41%; in assay [26], 13.89%; in assay [9], “Dose-dependent effect”. Besides, the Activity amounted to 5.22% in assay [27]; 45.43% in [28]; 34.1% in [29]; 50.87% in assay [30]; 35.97% in assay [31]; 17.49% in [32]. The Activity in assay [33] worked out at 13.17%. The half-inhibitory concentration (IC50) in [1] was 29.3 µM; in assay [3] it was 70.5 µM; in assay [4], over 100 µM; in assay [5] it was 13.1 µM; in [6], over 100 µM. In addition, the outcome in assay [11] and in assay [20] was Active. This compound also returned a K in [2] of 6.01 ×10⁵ /M.
